Read-outs that look alike come from different tables or passages of the source. Starred links: 1 amine or outer side, 2 acyl side, 3 side chain; linkers in the order of their positions; H or OH if unused. Non-standard residues stand in square brackets, D forms with d. Groups on a side chain read outwards from the residue. No end group written: not given here. *: point of attachment. C18 diacid = O=C(O)CCCCCCCCCCCCCCCCC(=O)*; γGlu = O=C(O)[C@H](CCC(=O)[*:2])N[*:1]; αMe4Pal = C[C@](N)(Cc1ccncc1)C(=O)O; αMeY = C[C@](N)(Cc1ccc(O)cc1)C(=O)O; 4Pal = N[C@@H](Cc1ccncc1)C(=O)O; αMeL = CC(C)C[C@](C)(N)C(=O)O; Orn = NCCC[C@H](N)C(=O)O; AEEA = NCCOCCOCC(=O)O; Aib = CC(C)(N)C(=O)O
Key:
Type in all cases: cell-based
human GcgR = human GcgR (Homo sapiens, UniProt P47871); test: Functional cAMP activity in the presence of 1% HSA; details: read-out: cAMP Rel EC50, hGcgR
hGIPR [1] = target: T1, hGIPR (Homo sapiens, UniProt P48546); test: Functional cAMP activity in the presence of 1% HSA; details: read-out: cAMP Rel EC50, hGIPR
T1 sequence (P48546 22-466): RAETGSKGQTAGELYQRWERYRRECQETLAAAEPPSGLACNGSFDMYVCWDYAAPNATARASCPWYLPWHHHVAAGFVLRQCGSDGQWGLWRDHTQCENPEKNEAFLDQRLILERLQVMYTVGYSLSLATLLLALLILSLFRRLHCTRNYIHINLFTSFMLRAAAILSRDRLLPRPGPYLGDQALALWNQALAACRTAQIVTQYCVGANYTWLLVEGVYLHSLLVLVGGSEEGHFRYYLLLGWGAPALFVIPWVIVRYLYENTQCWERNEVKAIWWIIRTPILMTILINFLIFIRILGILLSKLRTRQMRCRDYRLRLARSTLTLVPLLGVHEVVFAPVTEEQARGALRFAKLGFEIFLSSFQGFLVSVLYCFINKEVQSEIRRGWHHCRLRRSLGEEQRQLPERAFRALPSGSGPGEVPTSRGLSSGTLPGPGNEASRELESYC

hGLP-1R [2] = target: T2, hGLP-1R (Homo sapiens, UniProt P43220); test: Functional cAMP activity in the presence of 1% HSA; details: read-out: cAMP Rel EC50, hGLP-1R
hGLP-1R [3] = target: T2, hGLP-1R; test: Functional cAMP activation in the presence of 0.1% casein (no HSA); details: in the presence of 0.1% casein (no HSA); geometric mean; read-out: Relative cAMP EC50, hGLP-1R;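 as to Relative cAMP EC50, hGIPR: intracellular cAMP rise after 30 min at 37 °C read by HTRF against a standard curve, scaled between buffer alone (0%) and top control ligand concentration (100%), four-parameter fit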;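 as to Relative cAMP EC50, hGLP-1R: intracellular cAMP rise after 30 min at 37 °C read by HTRF, normalized between buffer only (0%) and maximal control ligand (100%), four-parameter variable-slope fit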;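 as to Relative cAMP EC50, hGcgR: intracellular cAMP rise after 30 min at 37 °C, read by HTRF against a cAMP standard curve, scaled from buffer only (0%) to maximal control ligand response (100%)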
hGcgR = hGcgR (Homo sapiens, UniProt P47871); test: as above; details: in the presence of 0.1% casein (no HSA); geometric mean; read-out: Relative cAMP EC50, hGcgR;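 also: intracellular cAMP rise after 30 min at 37 °C, read by HTRF against a cAMP standard curve, scaled from buffer only (0%) to maximal control ligand response (100%)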
hGIPR [4] = target: T1, hGIPR; test: as above; details: in the presence of 0.1% casein (no HSA); geometric mean; read-out: Relative cAMP EC50, hGIPR
[5] = HEK-293 clonal cell line, in the presence of 1% HSA, geometric mean of relative EC50

Chain of human GcgR (P47871 26-477): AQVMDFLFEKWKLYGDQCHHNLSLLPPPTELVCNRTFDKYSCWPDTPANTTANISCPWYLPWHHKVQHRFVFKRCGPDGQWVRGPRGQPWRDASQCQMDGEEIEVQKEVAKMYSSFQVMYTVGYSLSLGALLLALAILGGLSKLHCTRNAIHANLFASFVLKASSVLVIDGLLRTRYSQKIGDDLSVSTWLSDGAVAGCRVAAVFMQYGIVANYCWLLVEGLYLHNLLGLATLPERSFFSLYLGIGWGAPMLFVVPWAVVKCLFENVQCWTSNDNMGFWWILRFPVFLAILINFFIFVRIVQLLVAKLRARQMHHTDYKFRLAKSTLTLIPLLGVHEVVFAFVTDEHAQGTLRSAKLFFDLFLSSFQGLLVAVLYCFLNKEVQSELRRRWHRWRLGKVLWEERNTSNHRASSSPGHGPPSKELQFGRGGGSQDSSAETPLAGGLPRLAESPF
Chain of hGcgR (P47871 26-477): as above
T2 sequence (P43220 24-463): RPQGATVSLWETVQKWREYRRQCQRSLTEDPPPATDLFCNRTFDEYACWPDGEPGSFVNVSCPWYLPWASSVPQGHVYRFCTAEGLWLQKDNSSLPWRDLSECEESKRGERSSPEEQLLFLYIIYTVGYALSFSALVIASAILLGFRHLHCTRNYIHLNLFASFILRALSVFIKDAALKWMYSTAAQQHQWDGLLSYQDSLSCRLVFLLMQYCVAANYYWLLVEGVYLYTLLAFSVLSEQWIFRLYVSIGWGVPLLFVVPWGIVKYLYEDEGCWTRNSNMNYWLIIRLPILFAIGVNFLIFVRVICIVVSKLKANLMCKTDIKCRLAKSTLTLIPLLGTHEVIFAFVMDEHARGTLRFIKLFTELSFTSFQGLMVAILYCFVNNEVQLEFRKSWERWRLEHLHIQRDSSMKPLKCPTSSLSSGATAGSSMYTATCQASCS

Substance	EC50 (human GcgR) [nM]	EC50 (hGIPR [1]) [nM]	EC50 (hGLP-1R [2]) [nM]	EC50 (hGLP-1R [3]) [nM]	EC50 (hGcgR) [nM]	EC50 (hGIPR [4]) [nM]	EC50 (human GcgR; [5]) [nM]	EC50 (hGIPR [1]; [5]) [nM]	EC50 (hGLP-1R [2]; [5]) [nM]
Y[Aib]QGTFTSD[4Pal]SQ[αMeL]LDKK([dE-dE-γGlu-C18 diacid])AQ[αMe4Pal]AFIEYLIE[Aib]GPSSGAPPPSGSE-NH2 [Example 925]	2500	23	708	4.19	8.19	0.147			
Y[Aib]QGTFTSD[4Pal]SQ[αMeL]LDKK([dE-γGlu-C18 diacid])AQ[αMe4Pal]AFIEYLIAGGPSSGAPPPSGEEE-NH2 [Example 1088]	1710	15.6	367	2.99	14.8	0.182			
Y[Aib]QGTFTSD[4Pal]SQ[αMeL]LDKK([dE-γGlu-C18 diacid])AQ[αMe4Pal]AFIEYLIE[Aib]GPSSGAPPPSGSE-NH2 [Example 924]	910	15.7	402	3.12	6.05	0.0798			
Y[Aib]QGTFTSD[4Pal]SQ[αMeL]LDKK([dE-γGlu-C18 diacid])AQ[αMe4Pal]AFIEYLIE[Aib]GPSSGAPPPSGSEE-NH2 [Example 928]	1090	15.1	604	3.58	6.85	0.0883			
Y[Aib]QGTFTSD[4Pal]SQ[αMeL]LDKK([dE-γGlu-dE-C18 diacid])AQ[αMe4Pal]AFIEYLIE[Aib]GPSSGAPPPSGS-NH2 [Example 923]	1840	18.5	870	6.23	9.1	0.123			
Y[Aib]QGTFTSD[4Pal]SQ[αMeL]LDKK([dE-γGlu-dE-C18 diacid])AQ[αMe4Pal]AFIEYLIE[Aib]GPSSGAPPPSGSEE-NH2 [Example 931]	2300	20.8	878	11.3	12.2	0.256			
Y[Aib]QGTFTSD[4Pal]SQ[αMeL]LDKK([γGlu-dE-dE-C18 diacid])AQ[αMe4Pal]AFIEYLIE[Aib]GPSSGAPPPSGSE-NH2 [Example 926]	1380	13.5	600	7.71	13.2	0.166			
Y[Aib]QGTFTSD[4Pal]SQ[αMeL]LDKK([γGlu-dE-dE-C18 diacid])AQ[αMe4Pal]AFIEYLIE[Aib]GPSSGAPPPSGSEE-NH2 [Example 930]	1700	19.9	824	11	13	0.244			
Y[Aib]QGTFTSD[4Pal]SQ[αMeL]LDKK([γGlu-γGlu-C18 diacid])AQ[αMe4Pal]AFIEYLIE[Aib]GPSSGAPPPSGS-NH2 [Example 858]	678	13.1	258	1.83	3.44	0.0995			
Y[Aib]QGTFTSD[4Pal]SQ[αMeL]LDKK([γGlu-γGlu-C18 diacid])AQ[αMe4Pal]AFIE[αMe4Pal]LIE[Aib]GPSSGAPPPSGEE-NH2 [Example 1121]				5.23	8.83	0.115	566	4.55	165
Y[Aib]QGTFTSD[4Pal]SQ[αMeL]LDKK([γGlu-γGlu-C18 diacid])AQ[αMe4Pal]AFIE[αMe4Pal]LIE[Aib]GPSSGAPPPSGSEE-NH2 [Example 1122]				5.66	10.3	0.109	474	4.54	177
Y[Aib]QGTFTSD[4Pal]SQ[αMeL]LDKK([γGlu-γGlu-C18 diacid])AQ[αMe4Pal]AFIE[αMe4Pal]LIE[Aib]GPSSGAPPPSGTE-NH2 [Example 1118]	802	5.45	183	5.42	6.52	0.128			
Y[Aib]QGTFTSD[4Pal]SQ[αMeL]LD[Orn]K([AEEA-γGlu-C18 diacid])AQ[αMe4Pal]AFIE[αMeY]LLEGGPSSGAPPPSGS-NH2 [Example 932]	513	25	249	1.61	2.67	0.188			

Source: US20240270821A1, “GIP/GLP1/GCG TRI-RECEPTOR AGONISTS AND USES THEREOF” (priority 2023, published 2024)
